From EPA's ToxRefDB 2

Key:
[1] = system: hamster; conditions: Subchronic oral toxicity in rodents, golden syrian, Feed, dose end: 90 day, group: systemic, systemic / in life observation / body weight / body weight + systemic / in life observation / body weight / body weight gain + systemic / in…
[2] = system: rat; conditions: Subchronic oral toxicity in rodents, wistar, Feed, dose end: 90 day, group: systemic, systemic / clinical chemistry / cholesterol / cholesterol + systemic / pathology microscopic / kidney / degeneration + systemic / pathology …
[3] = system: rabbit; conditions: Prenatal developmental toxicity study, new zealand white, Oral, Gavage/Intubation, dose end: 28 GD
[4] = system: rat; conditions: Prenatal developmental toxicity study, sprague dawley, Oral, Gavage/Intubation, dose end: 20 GD
[5] = system: dog; conditions: Chronic toxicity, beagle, Oral, Capsule, dose end: 55 week, group: systemic
[6] = system: rat; conditions: Combined chronic toxicity/carcinogenicity, wistar, Oral, Feed, dose end: 106 week, group: systemic
[7] = system: rabbit; conditions: Prenatal developmental toxicity study, new zealand white, Oral, Gavage/Intubation, dose end: 20 GD
[8] = system: rat; conditions: Multigenerational reproductive toxicity study, wistar, Oral, Feed, dose end: 2 generation
[9] = system: rat; conditions: Prenatal developmental toxicity study, sprague dawley, Oral, Gavage/Intubation, dose end: 20 GD; remark: listed apart in the source
[10] = system: rat; conditions: Combined chronic toxicity/carcinogenicity, sprague dawley, Oral, Feed, dose end: 104 week, group: systemic
[11] = system: dog; conditions: Subchronic oral toxicity in nonrodent, beagle, Capsule, dose end: 13 week, group: systemic, systemic / clinical chemistry / alanine aminotransferase (alt/sgpt) / alanine aminotransferase (alt/sgpt) + systemic / clinical chemistry / …
[12] = system: rat; conditions: Developmental neurotoxicity study; sprague dawley; Oral; Gavage/Intubation; dose end: 70 PND; group: cannot be grouped; reproductive / reproductive performance / gestational length / gestational length + systemic / in life observation / body weight / body …
[13] = system: rat; conditions: Developmental neurotoxicity study; sprague dawley; Oral; Water; dose end: 42 PND; group: cannot be grouped; developmental / developmental landmark / eye opening / eye opening + systemic / in life observation / body weight / offspring (pup) weight
[14] = system: rat; conditions: Developmental neurotoxicity study; fischer; Oral; Water; dose end: 90 PND; group: cannot be grouped; developmental / developmental landmark / incisor eruption / incisor eruption + systemic / in life observation / body weight / offspring (pup…
[15] = group: developmental, developmental / developmental malformation / bone / incomplete ossification + developmental / developmental malformation / eye / [other] + …
[16] = group: maternal, reproductive / reproductive performance / aborted / aborted + reproductive / reproductive performance / postimplantation loss / …
[17] = group: developmental, developmental / developmental malformation / bone / incomplete ossification
[18] = group: maternal, reproductive / reproductive performance / postimplantation loss / postimplantation loss + systemic / in life observation / body weight / …
[19] = systemic / pathology microscopic / adrenal gland / vacuolization + systemic / clinical chemistry / [other] / [other] + systemic / clinical …
[20] = systemic / in life observation / body weight / body weight gain
[21] = group: developmental, developmental / developmental malformation / bone / full supernumerary + developmental / developmental malformation / bone / incomplete …
[22] = group: maternal, reproductive / reproductive performance / aborted / aborted + systemic / in life observation / body weight / body weight gain + systemic / …
[23] = group: maternal, reproductive / offspring survival early / litter size / litter size
[24] = group: parental, systemic / organ weight / epididymis / absolute + systemic / organ weight / epididymis / relative to body weight
[25] = group: parental, systemic / organ weight / epididymis / absolute + systemic / organ weight / epididymis / relative to body weight + systemic / organ weight…
[26] = group: reproductive, reproductive / reproductive performance / gestational length / gestational length + reproductive / reproductive performance / implantations…
[27] = group: developmental, systemic / in life observation / body weight / fetal weight + developmental / developmental malformation / bone / absent + developmental / …
[28] = group: maternal, reproductive / reproductive performance / implantations / implantations
[29] = systemic / in life observation / clinical signs / fur (altered appearance)

Work on `CCCCOC(=O)C(C)Oc1ccc(Oc2ccc(C(F)(F)F)cn2)cc1` (centres undefined) [Fluazifop-butyl] yielded an LEL [1] of 292 mg/kg/day, an LOAEL [1] of 292 mg/kg/day and an NEL [1] of 78.3 mg/kg/day. For the same molecule, the NOAEL [1] was 78.3 mg/kg/day, the LEL [2] was 7.1 mg/kg/day and the LOAEL [2] was 7.1 mg/kg/day. The NEL [2] was 0.7 mg/kg/day, the NOAEL [2] was 0.7 mg/kg/day and the LEL [3, 15] was 90 mg/kg/day. The LOAEL [3, 15] was 90 mg/kg/day, the NEL [3, 15] was 30 mg/kg/day and the NOAEL [3, 15] was 30 mg/kg/day. It also gave an LEL [3, 16] of 90 mg/kg/day, an LOAEL [3, 16] of 90 mg/kg/day and an NEL [3, 16] of 30 mg/kg/day. It also gave an NOAEL [3, 16] of 30 mg/kg/day, an LEL [4, 17] of 10 mg/kg/day and an LOAEL [4, 17] of 10 mg/kg/day. The NEL [4, 17] was less than 10 mg/kg/day, the NOAEL [4, 17] was less than 10 mg/kg/day and the LEL [4, 18] was 200 mg/kg/day. It also gave an LOAEL [4, 18] greater than 200 mg/kg/day, an NEL [4, 18] of 50 mg/kg/day and an NOAEL [4, 18] of no less than 200 mg/kg/day. It also gave an NEL [5, 19] of 5 mg/kg/day, an NOAEL [5, 19] of 5 mg/kg/day and an LOAEL ([5]; systemic / pathology microscopic / adrenal gland / vacuolization + systemic / pathology microscopic / thymus / involution) of 25 mg/kg/day. The LEL ([5]; systemic / pathology microscopic / adrenal gland / vacuolization + systemic / pathology microscopic / thymus / involution + systemic / …) was 25 mg/kg/day, the LEL [6, 20] was 0.127 mg/kg/day and the NEL [6, 20] was less than 0.127 mg/kg/day. It also gave an LOAEL ([6]; systemic / pathology microscopic / kidney / nephropathy + systemic / in life observation / mortality / mortality) of 4.15 mg/kg/day, an NOAEL ([6]; systemic / pathology microscopic / kidney / nephropathy + systemic / organ weight / kidney / absolute + systemic / organ weight / kidney / …) of 0.51 mg/kg/day and an LEL [7, 21] of 50 mg/kg/day. The LOAEL [7, 21] was 50 mg/kg/day, the NEL [7, 21] was 10 mg/kg/day and the NOAEL [7, 21] was 10 mg/kg/day. The LEL [7, 22] was 50 mg/kg/day, the LOAEL [7, 22] was 50 mg/kg/day and the NEL [7, 22] was 10 mg/kg/day. For the same molecule, the NOAEL [7, 22] was 10 mg/kg/day, the LEL [8, 23] was 17.5 mg/kg/day and the LOAEL [8, 23] was 17.5 mg/kg/day. It also gave an NEL [8, 23] of 5.8 mg/kg/day, an NOAEL [8, 23] of 5.8 mg/kg/day and an LOAEL ([8]; group: offspring, reproductive / offspring survival early / litter size / litter size) of 17.5 mg/kg/day. It also gave an NOAEL ([8]; group: offspring, reproductive / offspring survival early / litter size / litter size + systemic / pathology microscopic / kidney / hydronephrosis) of 5.8 mg/kg/day, an LEL ([8]; group: offspring, systemic / pathology microscopic / kidney / hydronephrosis) of 7.1 mg/kg/day and an NEL ([8]; group: offspring, systemic / pathology microscopic / kidney / hydronephrosis + developmental / offspring survival late / viability index / viability index + …) of 0.88 mg/kg/day. It also gave an LEL [8, 24] of 0.74 mg/kg/day, an NEL [8, 24] of less than 0.74 mg/kg/day and an LOAEL [8, 25] of 5.8 mg/kg/day. The NOAEL [8, 25] was 0.74 mg/kg/day, the NEL ([8]; group: reproductive, reproductive / offspring survival early / birth index / live birth index + reproductive / reproductive performance / fertility / fertility…) was 0.88 mg/kg/day and the LEL ([8]; group: reproductive, reproductive / reproductive performance / gestational length / gestational length) was 7.1 mg/kg/day. For the same molecule, the LOAEL [8, 26] was greater than 21.7 mg/kg/day, the NOAEL [8, 26] was no less than 21.7 mg/kg/day and the LOAEL ([9]; group: developmental, systemic / in life observation / body weight / fetal weight) was 5 mg/kg/day. For the same molecule, the LEL [9, 27] was 5 mg/kg/day, the NEL [9, 27] was 1 mg/kg/day and the NOAEL [9, 27] was 1 mg/kg/day. The LEL [9, 28] was 10 mg/kg/day, the LOAEL [9, 28] was greater than 200 mg/kg/day and the NEL [9, 28] was 5 mg/kg/day. For the same molecule, the NOAEL [9, 28] was no less than 200 mg/kg/day, the LEL [10, 29] was 0.1 mg/kg/day and the NEL [10, 29] was less than 0.1 mg/kg/day. For the same molecule, the LOAEL ([10]; systemic / in life observation / mortality / mortality) was 3 mg/kg/day, the NOAEL ([10]; systemic / in life observation / mortality / mortality + systemic / in life observation / clinical signs / fur (altered appearance) + …) was 1 mg/kg/day and the LEL [11] was 250 mg/kg/day. It also gave an LOAEL [11] of 250 mg/kg/day, an NEL [11] of 25 mg/kg/day and an NOAEL [11] of 25 mg/kg/day.
For `Cn1cc[nH]c1=S` [Methimazole], the LEL [12] was 20 mg/kg/day, the LOAEL [12] was greater than 20 mg/kg/day and the NEL [12] was less than 20 mg/kg/day. The NOAEL [12] was no less than 20 mg/kg/day, the LEL [13] was 7 mg/kg/day and the LOAEL [13] was greater than 7 mg/kg/day. For the same molecule, the NEL [13] was less than 7 mg/kg/day, the NOAEL [13] was no less than 7 mg/kg/day and the LEL [14] was 1.5 mg/kg/day. It also gave an LOAEL [14] greater than 15 mg/kg/day, an NEL [14] of less than 1.5 mg/kg/day and an NOAEL [14] of no less than 15 mg/kg/day.
